What all share (assay): Ras GTP binding domain inhibition assay (Cy3-GTP/Cy5-GTP competition)
For one experiment, the target named is T1, KRas G12D mutant (Homo sapiens, UniProt P01116, G12D).
T1 construct: fused on or other part: His tag, used for capture on nickel-coated plates
Particulars: 20 μM. Put shortly:
(§1)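 First, His-tagged protein is coated on nickel wells overnight at 4 °C. Next, compound (20 μM single point or serial dilution) is added for 3 h at room temperature, with or without Sos exchange factor in the last hour. Finally, 100 nM labelled GTP binds for 45 min and retained signal is measured.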

Another experiment concerns KRas G12C mutant. The arrangement: species or system human. Particulars: 20 μM; for KRas G12C mutant + SOS: % inh.: with SOS (Table 7A); for KRas G12C mutant: % inh.: without SOS (Table 7A). Put shortly: as §1
The next experiment has as its system KRas Q61H mutant. Further details: species or system human. The note with it: 20 μM; for KRas Q61H mutant + SOS: % inh.: with SOS (Table 7A); for KRas Q61H mutant: % inh.: without SOS (Table 7A). The method, boiled down:
as §1

Another experiment deals with KRas wild type. Further details: species or system human. The note with it: 20 μM; for KRas wild type + SOS: % inh.: with SOS (Table 7A); for KRas wild type % inh.: without SOS (Table 7A). Put shortly: as §1
Where [1] appears, read: with SOS (Table 7A), read-out: KRas G12D mutant + SOS: % inh.
[2] abbreviates: without SOS (Table 7A), read-out: KRas G12D mutant: % inh.

Structures are written as SMILES. Like-named read-outs stand apart in the source and are kept apart here.

For the molecule `COC1CCC(Nc2nc(-c3nccn3C)nc3sc(-c4cccc5[nH]ncc45)c(-c4ccccc4)c23)C1` (stereo not shown) [drawing 888], the inhibition at 20 µM at KRas G12D mutant (setting [1]) was 26 to 50%. Further, the inhibition at 20 µM on KRas G12D mutant (setting [2]) was 26 to 50%. In the experiment on KRas G12C mutant, the “KRas G12C mutant + SOS: % inh.” value is reported as “D (76-100% inhibition)” and the “KRas G12C mutant: % inh.” value was “B (26-50% inhibition)”. Moreover, in the experiment on KRas Q61H mutant, the “KRas Q61H mutant + SOS: % inh.” value is recorded as “D (76-100% inhibition)” and the “KRas Q61H mutant: % inh.” value is reported as “C (51-75% inhibition)”. Further, in the experiment on KRas wild type, the “KRas wild type + SOS: % inh.” value is “D (76-100% inhibition)” and the “KRas wild type % inh.” value is reported as “B (26-50% inhibition)”.
In the case of `COC1CCN(c2nc(-c3nccn3C)nc3sc(-c4cccc(O)c4F)c(-c4ccccc4)c23)C1` (stereo not shown) [drawing 890], on KRas G12D mutant (setting [1]), the inhibition at 20 µM lay in the range of 51 to 75%. Besides, the inhibition at 20 µM at KRas G12D mutant (setting [2]) is 1 to 25%. In addition, in the experiment with KRas G12C mutant, the “KRas G12C mutant + SOS: % inh.” value is listed as “C (51-75% inhibition)” and the “KRas G12C mutant: % inh.” value is given as “A (1-25% inhibition)”. In the experiment on KRas Q61H mutant, the “KRas Q61H mutant + SOS: % inh.” value is reported as “C (51-75% inhibition)” and the “KRas Q61H mutant: % inh.” value is reported as “B (26-50% inhibition)”. In addition, in the experiment with KRas wild type, the “KRas wild type + SOS: % inh.” value is recorded as “C (51-75% inhibition)” and the “KRas wild type % inh.” value is reported as “B (26-50% inhibition)”.
For the molecule `COc1cccc(-c2sc3nc(-c4nccn4C)nc(N[C@H]4C[C@@H](OC)C4)c3c2-c2ccccc2)c1F` [drawing 891], the inhibition at 20 µM on KRas G12D mutant (setting [1]) was 51 to 75%. In addition, the inhibition at 20 µM at KRas G12D mutant (setting [2]) lay within 26 to 50%. In the experiment on KRas G12C mutant, the “KRas G12C mutant + SOS: % inh.” value was “D (76-100% inhibition)” and the “KRas G12C mutant: % inh.” value was “C (51-75% inhibition)”. In the experiment with KRas Q61H mutant, the “KRas Q61H mutant + SOS: % inh.” value is on record as “D (76-100% inhibition)” and the “KRas Q61H mutant: % inh.” value is given as “D (76-100% inhibition)”. Further, in the experiment on KRas wild type, the “KRas wild type + SOS: % inh.” value is “D (76-100% inhibition)” and the “KRas wild type % inh.” value is “C (51-75% inhibition)”.
Take `CO[C@H]1C[C@@H](Nc2nc(-c3nccn3C)nc3sc(-c4cnn(C)c4)c(-c4ccccc4)c23)C1` [drawing 892]: the inhibition at 20 µM on KRas G12D mutant (setting [1]) was 76 to 100%. Besides, on KRas G12D mutant (setting [2]), the inhibition at 20 µM was in the range of 51 to 75%. In the experiment on KRas G12C mutant, the “KRas G12C mutant + SOS: % inh.” value is “D (76-100% inhibition)” and the “KRas G12C mutant: % inh.” value is “D (76-100% inhibition)”. Moreover, in the experiment with KRas Q61H mutant, the “KRas Q61H mutant + SOS: % inh.” value is given as “D (76-100% inhibition)” and the “KRas Q61H mutant: % inh.” value is recorded as “D (76-100% inhibition)”. Moreover, in the experiment on KRas wild type, the “KRas wild type + SOS: % inh.” value is given as “D (76-100% inhibition)” and the “KRas wild type % inh.” value is given as “D (76-100% inhibition)”.
With `COc1cccc(-c2sc3nc(-c4nccn4C)nc(NC4CCC(OC)C4)c3c2C)c1F` (stereo not shown) [drawing 893], the inhibition at 20 µM on KRas G12D mutant (setting [1]) was in the range of 51 to 75%. The inhibition at 20 µM at KRas G12D mutant (setting [2]) lay in the range of 76 to 100%. Also, in the experiment on KRas G12C mutant, the “KRas G12C mutant + SOS: % inh.” value is “C (51-75% inhibition)” and the “KRas G12C mutant: % inh.” value is “D (76-100% inhibition)”. Moreover, in the experiment with KRas Q61H mutant, the “KRas Q61H mutant + SOS: % inh.” value was “C (51-75% inhibition)” and the “KRas Q61H mutant: % inh.” value was “C (51-75% inhibition)”. For the same molecule, in the experiment on KRas wild type, the “KRas wild type + SOS: % inh.” value was “C (51-75% inhibition)” and the “KRas wild type % inh.” value is on record as “C (51-75% inhibition)”.
With `COC1CCC(Nc2nc(-c3nccn3C)nc3sc(-c4cccc5[nH]ncc45)c(C)c23)C1` (stereo not shown) [drawing 895], at KRas G12D mutant (setting [1]), the inhibition at 20 µM fell in the range of 51 to 75%. For the same molecule, the inhibition at 20 µM at KRas G12D mutant (setting [2]) is 26 to 50%. In addition, in the experiment on KRas G12C mutant, the “KRas G12C mutant + SOS: % inh.” value is given as “D (76-100% inhibition)” and the “KRas G12C mutant: % inh.” value is on record as “B (26-50% inhibition)”. Moreover, in the experiment on KRas Q61H mutant, the “KRas Q61H mutant + SOS: % inh.” value is “D (76-100% inhibition)” and the “KRas Q61H mutant: % inh.” value is recorded as “B (26-50% inhibition)”. In addition, in the experiment with KRas wild type, the “KRas wild type + SOS: % inh.” value was “D (76-100% inhibition)” and the “KRas wild type % inh.” value was “B (26-50% inhibition)”.
On to `COCCn1ccnc1-c1nc(O)c2scc(-c3ccc(OCC(C)C)nc3)c2n1` [drawing 898], for which the inhibition at 20 µM at KRas G12D mutant (setting [1]) fell in the range of 51 to 75%. The inhibition at 20 µM at KRas G12D mutant (setting [2]) lay within 51 to 75%. Further, in the experiment on KRas G12C mutant, the “KRas G12C mutant + SOS: % inh.” value was “C (51-75% inhibition)” and the “KRas G12C mutant: % inh.” value was “C (51-75% inhibition)”. Besides, in the experiment on KRas Q61H mutant, the “KRas Q61H mutant + SOS: % inh.” value is “C (51-75% inhibition)” and the “KRas Q61H mutant: % inh.” value was “D (76-100% inhibition)”. Besides, in the experiment with KRas wild type, the “KRas wild type + SOS: % inh.” value is given as “C (51-75% inhibition)” and the “KRas wild type % inh.” value is recorded as “C (51-75% inhibition)”.
For the molecule `CC(C)COc1ccc(-c2csc3c(O)nc(-c4nccn4Cc4ccccn4)nc23)cn1` [drawing 899], on KRas G12D mutant (setting [1]), the inhibition at 20 µM was 51 to 75%. Also, on KRas G12D mutant (setting [2]), the inhibition at 20 µM is 76 to 100%. In the experiment with KRas G12C mutant, the “KRas G12C mutant + SOS: % inh.” value was “C (51-75% inhibition)” and the “KRas G12C mutant: % inh.” value is recorded as “C (51-75% inhibition)”. Further, in the experiment with KRas Q61H mutant, the “KRas Q61H mutant + SOS: % inh.” value was “D (76-100% inhibition)” and the “KRas Q61H mutant: % inh.” value is recorded as “C (51-75% inhibition)”. In the experiment with KRas wild type, the “KRas wild type + SOS: % inh.” value was “C (51-75% inhibition)” and the “KRas wild type % inh.” value is “D (76-100% inhibition)”.

(Values after patent publication US20250296938A1, “Compounds that Interact with the Ras Superfamily for the Treatment of Cancers, Inflammatory Diseases, Rasopathies, and Fibrotic Disease” (SHY Therapeutics, LLC, priority 2018, published 2025).)
